The values that follow come from US9175003B2, “Substituted azoanthracene derivatives and intermediates for preparation thereof” (TransTech Pharma, LLC, priority 2009, dated 2015).

The target in the experiment is human GLP-1 receptor (Homo sapiens (Human), UniProt P43220). The conditions noted are these: read-out: Mean EC50; cAMP, HTRF detection, 30 min at 37° C., HEK-293 cells expressing cloned human GLP-1 receptor.
Chain of human GLP-1 receptor (P43220 24-463): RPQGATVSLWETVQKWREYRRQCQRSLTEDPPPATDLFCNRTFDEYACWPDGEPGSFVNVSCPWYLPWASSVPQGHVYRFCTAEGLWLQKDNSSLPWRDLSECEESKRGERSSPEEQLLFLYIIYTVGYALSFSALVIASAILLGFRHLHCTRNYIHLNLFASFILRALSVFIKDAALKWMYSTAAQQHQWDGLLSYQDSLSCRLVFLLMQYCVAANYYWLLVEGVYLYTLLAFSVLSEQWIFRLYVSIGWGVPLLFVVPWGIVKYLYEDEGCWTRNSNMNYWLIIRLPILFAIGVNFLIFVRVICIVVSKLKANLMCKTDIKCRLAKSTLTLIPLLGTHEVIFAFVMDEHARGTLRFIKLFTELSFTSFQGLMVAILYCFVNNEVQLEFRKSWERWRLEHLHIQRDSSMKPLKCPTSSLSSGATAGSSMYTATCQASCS

As to `N#Cc1ccc(-c2ccc(C[C@H](NC(=O)[C@@H]3Cc4cc5c(cc4CN3C(=O)c3ccoc3)OC(c3ccc(OCc4ccc(Cl)c(Cl)c4)cc3)CO5)C(=O)O)cc2)cc1` (stereo in doubt) [Example 27, (S)-3-(4′-Cyano-biphenyl-4-yl)-2-{[(S)-3-[4-(3,4-dichloro-benzyloxy)-phenyl]-7-(furan-3-carbonyl)-2,3,6,7,8,9-hexahydro-[1,4]dioxino[2,3-g]isoquinoline-8-carbonyl]-amino}-propionic acid], the EC50 amounted to 843 nM.
To `Cn1ccnc1CN1Cc2cc3c(cc2C[C@H]1C(=O)N[C@@H](Cc1ccc(-c2ccc(C#N)cc2)cc1)C(=O)O)OCC(c1ccc(OCc2ccc(Cl)c(Cl)c2)cc1)O3` (stereo in doubt) [Example 40, (S)-3-(4′-Cyano-biphenyl-4-yl)-2-{[(S)-3-[4-(3,4-dichloro-benzyloxy)-phenyl]-7-(1-methyl-1H-imidazol-2-ylmethyl)-2,3,6,7,8,9-hexahydro-[1,4]dioxino[2,3-g]isoquinoline-8-carbonyl]-amino}-propionic acid] belongs 310 nM; to `CC(=O)N1CC(c2ccc(OCc3ccc(Cl)c(Cl)c3)cc2)Oc2cc3c(cc21)C[C@@H](C(=O)N[C@@H](Cc1ccc(-c2ccc(C#N)cc2)cc1)C(=O)O)N(C(=O)c1ccccc1)C3` (stereo in doubt) [Example 53, (S)-2-({(S)-1-Acetyl-6-benzoyl-3-[4-(3,4-dichloro-benzyloxy)-phenyl]-2,3,5,6,7,8-hexahydro-1H-4-oxa-1,6-diaza-anthracene-7-carbonyl}-amino)-3-(4′-cyano-biphenyl-4-yl)-propionic acid], 380 nM; to `Cc1nc(NC(=O)C2CCC2)sc1S(=O)(=O)N1Cc2cc3c(cc2C[C@H]1C(=O)N[C@@H](Cc1ccc(-c2ccc(C#N)cc2)cc1)C(=O)O)OCC(c1ccc(OCc2ccc(Cl)c(Cl)c2)cc1)O3` (stereo in doubt) [Example 55, (S)-3-(4′-Cyano-biphenyl-4-yl)-2-({(S)-7-[2-(cyclobutanecarbonyl-amino)-4-methyl-thiazole-5-sulfonyl]-3-[4-(3,4-dichloro-benzyloxy)-phenyl]-2,3,6,7,8,9-hexahydro[1,4]dioxino[2,3-g]isoquinoline-8-carbonyl}-amino)-propionic acid], 360 nM.
To `CCNc1nc(C)c(S(=O)(=O)N2Cc3cc4c(cc3C[C@H]2C(=O)N[C@@H](Cc2ccc(-c3ccc(C#N)cc3)cc2)C(=O)O)OCC(c2ccc(OCc3ccc(C)c(Cl)c3)cc2)O4)s1` (stereo in doubt) [Example 63, (S)-2-{[(S)-3-[4-(3-Chloro-4-methyl-benzyloxy)-phenyl]-7-(2-ethylamino-4-methyl-thiazole-5-sulfonyl)-2,3,6,7,8,9-hexahydro-[1,4]dioxino[2,3-g]isoquinoline-8-carbonyl]-amino}-3-(4′-cyano-biphenyl-4-yl)-propionic acid] belongs 277 nM; to `Cc1nc(NC(=O)C(F)(F)F)sc1S(=O)(=O)N1Cc2cc3c(cc2C[C@H]1C(=O)N[C@@H](Cc1ccc(-c2ccc(C#N)cc2)cc1)C(=O)O)OCC(c1ccc(OCc2ccc(Cl)c(Cl)c2)cc1)O3` (stereo in doubt) [Example 70, (S)-3-(4′-Cyano-biphenyl-4-yl)-2-({(S)-3-[4-(3,4-dichloro-benzyloxy)-phenyl]-7-[4-methyl-2-(2,2,2-trifluoro-acetylamino)-thiazole-5-sulfonyl]-2,3,6,7,8,9-hexahydro-[1,4]dioxino[2,3-g]isoquinoline-8-carbonyl}-amino)-propionic acid], 259 nM; to `Cc1sc(N)nc1S(=O)(=O)N1Cc2cc3c(cc2C[C@H]1C(=O)N[C@@H](Cc1ccc(-c2ccc(C#N)cc2)cc1)C(=O)O)OCC(c1ccc(OCc2ccc(Cl)c(Cl)c2)cc1)O3` (stereo in doubt) [Example 95, (S)-2-({(S)-7-(2-Amino-5-methyl-thiazole-4-sulfonyl)-3-[4-(3,4-dichloro-benzyloxy)-phenyl]-2,3,6,7,8,9-hexahydro-[1,4]dioxino[2,3-g]isoquinoline-8-carbonyl}-amino)-3-(4′-cyano-biphenyl-4-yl)-propionic acid], 462 nM.
For the compound `CCNc1nc(S(=O)(=O)N2Cc3cc4c(cc3C[C@H]2C(=O)N[C@@H](Cc2ccc(-c3ccc(C#N)cc3)cc2)C(=O)O)OCC(c2ccc(OCc3ccc(Cl)c(Cl)c3)cc2)O4)c(C)s1` (stereo in doubt) [Example 96, (S)-3-(4′-Cyano-biphenyl-4-yl)-2-{[(S)-3-[4-(3,4-dichloro-benzyloxy)-phenyl]-7-(2-ethylamino-5-methyl-thiazole-4-sulfonyl)-2,3,6,7,8,9-hexahydro-[1,4]dioxino[2,3-g]isoquinoline-8-carbonyl]-amino}-propionic acid], the EC50 was 185 nM.
To `Cc1nc(NCC2CCC2)sc1S(=O)(=O)N1Cc2cc3c(cc2C[C@H]1C(=O)N[C@@H](Cc1ccc(-c2ccc(C#N)cc2)cc1)C(=O)O)OCC(c1ccc(OCc2ccc(Cl)c(Cl)c2)cc1)O3` (stereo in doubt) [Example 105, (S)-3-(4′-Cyano-biphenyl-4-yl)-2-({(S)-7-[2-(cyclobutylmethyl-amino)-4-methyl-thiazole-5-sulfonyl]-3-[4-(3,4-dichloro-benzyloxy)-phenyl]-2,3,6,7,8,9-hexahydro-[1,4]dioxino[2,3-g]isoquinoline-8-carbonyl}-amino)-propionic acid] belongs 321 nM; to `CCCCNc1nc(C)c(S(=O)(=O)N2Cc3cc4c(cc3C[C@H]2C(=O)N[C@@H](Cc2ccc(-c3ccc(C#N)cc3)cc2)C(=O)O)OCC(c2ccc(OCc3ccc(Cl)c(Cl)c3)cc2)O4)s1` (stereo in doubt) [Example 109, (S)-2-({(S)-7-(2-Butylamino-4-methyl-thiazole-5-sulfonyl)-3-[4-(3,4-dichloro-benzyloxy)-phenyl]-2,3,6,7,8,9-hexahydro-[1,4]dioxino[2,3-g]isoquinoline-8-carbonyl}-amino)-3-(4′-cyano-biphenyl-4-yl)-propionic acid], 298 nM.
As for `Cc1nc(NCCC(C)C)sc1S(=O)(=O)N1Cc2cc3c(cc2C[C@H]1C(=O)N[C@@H](Cc1ccc(-c2ccc(C#N)cc2)cc1)C(=O)O)OCC(c1ccc(OCc2ccc(Cl)c(Cl)c2)cc1)O3` (stereo in doubt) [Example 110, (S)-3-(4′-Cyano-biphenyl-4-yl)-2-({(S)-3-[4-(3,4-dichloro-benzyloxy)-phenyl]-7-[4-methyl-2-(3-methyl-butylamino)-thiazole-5-sulfonyl]-2,3,6,7,8,9-hexahydro-[1,4]dioxino[2,3-g]isoquinoline-8-carbonyl}-amino)-propionic acid], the figure is 356 nM; as for `CC(=O)Nc1ccc(S(=O)(=O)N2Cc3cc4c(cc3C[C@H]2C(=O)N[C@@H](Cc2ccc(-c3ccc(C#N)cc3)cc2)C(=O)O)OCC(c2ccc(OCc3ccc(Cl)c(Cl)c3)cc2)O4)c(C)c1` (stereo in doubt) [Example 111, (S)-2-({(S)-7-(4-Acetylamino-2-methyl-benzenesulfonyl)-3-[4-(3,4-dichloro-benzyloxy)-phenyl]-2,3,6,7,8,9-hexahydro-[1,4]dioxino[2,3-g]isoquinoline-8-carbonyl}-amino)-3-(4′-cyano-biphenyl-4-yl)-propionic acid], 44 nM; as for `N#Cc1ccc(-c2ccc(C[C@H](NC(=O)[C@@H]3Cc4cc5c(cc4CN3S(=O)(=O)c3ccc(N4CCOCC4)nc3)OC(c3ccc(OCc4ccc(Cl)c(Cl)c4)cc3)CO5)C(=O)O)cc2)cc1` (stereo in doubt) [Example 112, (S)-3-(4′-Cyano-biphenyl-4-yl)-2-{[(S)-3-[4-(3,4-dichloro-benzyloxy)-phenyl]-7-(6-morpholin-4-yl-pyridine-3-sulfonyl)-2,3,6,7,8,9-hexahydro-[1,4]dioxino[2,3-g]isoquinoline-8-carbonyl]-amino}-propionic acid], 48 nM.
To `Cc1nc(NC(=O)C(C)C)sc1S(=O)(=O)N1Cc2cc3c(cc2C[C@H]1C(=O)N[C@@H](Cc1ccc(-c2ccc(C#N)cc2)cc1)C(=O)O)OCC(c1ccc(OCc2ccc(Cl)c(Cl)c2)cc1)O3` (stereo in doubt) [Example 114, (S)-3-(4′-Cyano-biphenyl-4-yl)-2-{[(S)-3-[4-(3,4-dichloro-benzyloxy)-phenyl]-7-(2-isobutyrylamino-4-methyl-thiazole-5-sulfonyl)-2,3,6,7,8,9-hexahydro-[1,4]dioxino[2,3-g]isoquinoline-8-carbonyl]-amino}-propionic acid] belongs 232 nM; to `CC(=O)Nc1ccc(S(=O)(=O)N2Cc3cc4c(cc3C[C@H]2C(=O)N[C@@H](Cc2ccc(-c3ccc(C#N)cc3)cc2)C(=O)O)OCC(c2ccc(OCc3ccc(Cl)c(Cl)c3)cc2)O4)cc1` (stereo in doubt) [Example 115, (S)-2-({(S)-7-(4-Acetylamino-benzenesulfonyl)-3-[4-(3,4-dichloro-benzyloxy)-phenyl]-2,3,6,7,8,9-hexahydro-[1,4]dioxino[2,3-g]isoquinoline-8-carbonyl}-amino)-3-(4′-cyano-biphenyl-4-yl)-propionic acid], 163 nM; to `Cc1nc(N)sc1C(=O)N1Cc2cc3c(cc2C[C@H]1C(=O)N[C@@H](Cc1ccc(-c2ccc(C#N)cc2)cc1)C(=O)O)OCC(c1ccc(OCc2ccc(Cl)c(Cl)c2)cc1)O3` (stereo in doubt) [Example 126, (S)-2-({(S)-7-(2-Amino-4-methyl-thiazole-5-carbonyl)-3-[4-(3,4-dichloro-benzyloxy)-phenyl]-2,3,6,7,8,9-hexahydro-[1,4]dioxino[2,3-g]isoquinoline-8-carbonyl}-amino)-3-(4′-cyano-biphenyl-4-yl)-propionic acid], 312 nM.
Take `Cc1noc(C)c1S(=O)(=O)N1Cc2cc3c(cc2C[C@H]1C(=O)N[C@@H](Cc1ccc(-c2ccc(C#N)cc2)cc1)C(=O)O)OCC(c1ccc(OCc2ccc(Cl)c(Cl)c2)cc1)O3` (stereo in doubt) [Example 128, (S)-3-(4′-Cyano-biphenyl-4-yl)-2-{[(S)-3-[4-(3,4-dichloro-benzyloxy)-phenyl]-7-(3,5-dimethyl-isoxazole-4-sulfonyl)-2,3,6,7,8,9-hexahydro-[1,4]dioxino[2,3-g]isoquinoline-8-carbonyl]-amino}-propionic acid]: the EC50 amounted to 178 nM.
